One experiment has as its target T1, ALDH1A1 (Homo sapiens, UniProt P00352).
T1 sequence (P00352 1-501): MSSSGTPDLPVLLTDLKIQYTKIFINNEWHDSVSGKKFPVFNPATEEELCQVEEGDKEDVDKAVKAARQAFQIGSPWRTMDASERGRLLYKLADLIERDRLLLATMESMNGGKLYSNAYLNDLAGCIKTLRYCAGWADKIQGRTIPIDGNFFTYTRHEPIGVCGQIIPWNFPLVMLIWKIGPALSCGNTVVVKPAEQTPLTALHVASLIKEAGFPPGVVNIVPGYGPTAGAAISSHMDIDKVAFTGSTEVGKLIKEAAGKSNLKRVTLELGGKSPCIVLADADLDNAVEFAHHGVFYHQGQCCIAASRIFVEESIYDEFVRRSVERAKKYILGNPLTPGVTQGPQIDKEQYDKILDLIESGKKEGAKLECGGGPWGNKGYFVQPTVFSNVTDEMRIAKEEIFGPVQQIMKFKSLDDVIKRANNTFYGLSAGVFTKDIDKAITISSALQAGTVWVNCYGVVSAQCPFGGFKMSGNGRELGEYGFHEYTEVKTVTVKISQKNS
Kind of experiment: Cell-based enzyme assay, retinoic acid production in ALDH1A1/H1299 cells. As to conditions: cell-based. The procedure:
(§1) ALDH1A1 cDNA clone was purchased transfection-ready, and ALDH1A2 full-length cDNA was subcloned into pcDNA3, a mammalian expression vector. ALDH1A1 and ALDH1A2 were transfected into H1299 cells (CRL5803, ATCC) using Lipofectamine 3000 (Invitrogen) following the manufacturer's instructions. Stably transfected cells were selected with G418 (1.2 mg/ml) and referred to as ALDH1A1/H1299 and ALDH1A2/H1299. For the cell-based enzyme assays,
(§2) H1299 cells were routinely grown in RPMI-1640 (ATCC) supplemented with 10% fetal bovine serum (Atlanta Biologicals) in a 37 C, 5% CO2, moisture-saturated atmosphere. H1299, ALDH1A1/H1299 and ALDH1A2/H1299 cells were seeded into 12-well plates (1×10^5 cells/well) and grown for 2 days to confluence. Confluent cells were treated for 20 hours in the above media excluding serum with 2 μM all-trans-retinal, and varying concentrations of inhibitors. Serum-free media was used for the treatment period to avoid retinoic acid in serum. Retinoic acid concentrations were determined from cells and media, and specificity of inhibitors was determined by comparing retinoic acid levels in the presence and absence of the inhibitors in ALDH1A1- vs. ALDH1A2-expressing cells.

In experiment [1] the target is T2, ALDH1A2 (Homo sapiens, UniProt O94788).
T2 sequence (O94788 1-518): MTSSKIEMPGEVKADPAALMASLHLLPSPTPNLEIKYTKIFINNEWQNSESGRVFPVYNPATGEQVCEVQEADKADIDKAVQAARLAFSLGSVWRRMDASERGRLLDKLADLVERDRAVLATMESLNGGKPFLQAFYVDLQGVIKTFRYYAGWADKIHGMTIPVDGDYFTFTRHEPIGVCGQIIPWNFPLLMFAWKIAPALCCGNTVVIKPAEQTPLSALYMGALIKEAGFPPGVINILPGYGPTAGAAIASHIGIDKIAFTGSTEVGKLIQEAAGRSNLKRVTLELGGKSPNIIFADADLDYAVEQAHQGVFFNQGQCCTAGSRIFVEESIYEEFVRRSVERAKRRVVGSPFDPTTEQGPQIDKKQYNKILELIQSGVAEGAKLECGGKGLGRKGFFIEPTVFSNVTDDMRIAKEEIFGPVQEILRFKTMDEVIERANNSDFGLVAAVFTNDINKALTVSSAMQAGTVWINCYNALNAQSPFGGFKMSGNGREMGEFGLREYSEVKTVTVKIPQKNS
Kind of experiment: Cell-based enzyme assay, retinoic acid production in ALDH1A2/H1299 cells. As to conditions: cell-based. The procedure: as §1, §2

The target of experiment [2] is T2, ALDH1A2. In words: Inhibitor screening using purified enzymes: ALDH1A2 activity, retinoic acid production by HPLC (5 uM initial screen, then IC50). The format is biochemical. Set-up: histidine-tag (C); made in house; host or cells: bacterial expression (pET28 vector, IPTG induction). As to conditions: purified enzyme. An excerpt:
(§3) ALDHs were cloned into bacterial expression vector for in vitro enzyme assays and into mammalian expression vectors for cell-based enzyme assays. Human ALDH1A1 cDNA and human ALDH2 cDNA were purchased from OriGene (SC321535) and Open Biosystems (MHS4771-99611182), respectively. and human ALDH1A2 cDNA was cloned from human testis RNA using RT-PCR (Population Division of the Department of Economic and Social Affairs of the United Nations Secretariat. World Population prospects: the 2008 revision. Available at http://www.un.org/esa/population/ (Retrieved Sep. 30, 2011)). For bacterial expression, an open reading frame of ALDH1A1 and ALDH2 were subcloned into the pETite vector (Lucigen) with a 5′ histidine-tag and that of ALDH1A2 into a pET28 vector (Novagen) with a 3′ histidine-tag. Correct frame and sequences were verified through DNA sequencing (UW DNA sequencing facility). ALDHs were induced with 1 mM IPTG and purified using His.Bind resin (Novagen, San Diego, Calif.) and stored in a buffer containing 20 mM Hepes (pH 8), 150 mM KCl and 1 mM EDTA as previously described (Fierce, Y., de Morais Vieira, M., Piantedosi, R., Wyss, A., Blaner, W. S., and Paik, J. (2008) In vitro and in vivo characterization of retinoid synthesis from beta-carotene. Archives of biochemistry and biophysics 472, 126-138).
ALDH1A1 and ALDH1A2 activity was determined as previously reported (Beedle M T, Stevison F, Zhong G, Topping T, Hogarth C, Isoherranen N, Griswold M D. Sources of All-Trans Retinal Oxidation Independent of the Aldehyde Dehydrogenase 1A Isozymes Exist in the Postnatal Testis. Biol Reprod. 2018 Sep. 21. doi: 10.1093/biolre/ioy200). Briefly, purified enzymes were incubated in a buffer containing 10 mM HEPES buffer (pH 8.0), 150 mM potassium chloride and 2 mM EDTA with 2 mM NAD. Retinoic acid production was determined using HPLC as previously reported (Amory J K, Muller C H, Shimshoni A J, Isoherranen N, Paik J, Moreb J S, Amory D W, Evanoff R, Goldstein A S, Griswold M D. Suppression of spermatogenesis by bisdichloroacetyldiamines is mediated by inhibition of testicular retinoic acid biosynthesis. Journal of Andrology 2011; 32(1):111-119). Inhibitors were diluted in DMSO and added to the reactions. […] For initial screening of inhibitors for ALDH1A2, 1 μg ALDH1A2, 5 μM all-trans-retinal and 5 μM inhibitors were incubated for 15 min at 37° C. […] For this purpose, 0.5 μg ALDH1A2 and […] were incubated for 5 minutes at 37° C. with varying concentrations of inhibitors. To determine specificity toward ALDH1A2, the IC50 for […]

Another experiment has as its target T3, ALDH2 (Homo sapiens, UniProt P05091).
T3 construct: histidine-tag (N); made in house; host or cells: bacterial expression (pETite vector, IPTG induction)
T3 sequence (P05091 18-517): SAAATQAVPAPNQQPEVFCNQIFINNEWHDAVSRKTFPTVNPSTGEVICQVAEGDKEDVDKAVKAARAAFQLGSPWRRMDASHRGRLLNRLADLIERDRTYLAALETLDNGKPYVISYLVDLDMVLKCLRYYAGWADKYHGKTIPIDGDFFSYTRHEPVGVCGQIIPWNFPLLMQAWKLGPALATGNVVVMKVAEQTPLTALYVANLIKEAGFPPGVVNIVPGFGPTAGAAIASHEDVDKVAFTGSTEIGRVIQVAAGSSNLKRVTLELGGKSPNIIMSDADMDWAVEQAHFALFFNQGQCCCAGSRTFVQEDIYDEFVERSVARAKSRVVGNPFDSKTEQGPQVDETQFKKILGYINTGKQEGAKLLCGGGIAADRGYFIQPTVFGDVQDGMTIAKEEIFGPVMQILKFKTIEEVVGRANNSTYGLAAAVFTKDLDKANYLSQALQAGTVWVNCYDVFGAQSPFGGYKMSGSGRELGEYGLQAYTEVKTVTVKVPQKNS
In words: Purified ALDH2 assay with propanal, NADH fluorescence. The format is biochemical. As to conditions: purified enzyme.
Description: as §3, with “126-138). […]” for “126-138).”
For this, 2 μg purified ALDH2, 20 μM propanal and varying concentrations of inhibitors were incubated at room temperature. Enzyme activity was determined by measuring fluorescence of NADH (Ex, 350 nm/Em, 460 nm) using a Victor3 plate reader (PerkinElmer), and initial velocity was calculated from two consecutive readings over 1 minute.

In the case of “1-(4-Hydroxymethylphenyl)-3-[4-(methylsulfonyl)phenyl]-N-(3-fluorophenyl)-1H-pyrazole-4-carboxamide [Compound 282]”, the EC50 (commonly the midpoint of the concentration-response curve) on ALDH1A1 was greater than 20 µM; at ALDH1A2 [1] it was 0.24 µM.
In the case of “2-(Acetyloxy)phenyl 1-(4-fluorophenyl)-3-[4-(methylsulfonyl)phenyl]-1H-pyrazole-4-carboxylate [Compound 293]”, the values for the EC50 on ALDH1A1 and on ALDH1A2 [1] were greater than 20 µM and 0.07 µM, respectively.
Taken in the same sequence, the figures for `CC(=O)Oc1ccc(-c2nn(-c3ccccc3)cc2C=O)cc1` [Cmpd 35] were 3.38 µM and 0.952 µM.
Turning to `CS(=O)(=O)c1ccc(-c2nn(-c3cccc(Cl)c3)cc2C(=O)Nc2ccccc2O)cc1` [Compound 240, N-(2-Hydroxyphenyl)-3-[4-(methylsulfonyl)phenyl]-1-(3-chlorophenyl)-1H-pyrazole-4-carboxamide], the concentration for half-maximal inhibition (IC50) (as a rule, the concentration that inhibits the measured activity by half) against ALDH1A2 [2] was determined as 0.036 µM; on ALDH2, 14.2 µM. Also, the EC50 at ALDH1A2 [1] is less than 0.5 µM.
Taken in the same sequence, the figures for `CS(=O)(=O)c1ccc(-c2nn(-c3ccc(F)cc3)cc2C(=O)Nc2ccccc2O)cc1` [Compound 242, N-(2-Hydroxyphenyl)-3-[4-(methylsulfonyl)phenyl]-1-(4-fluorophenyl)-1H-pyrazole-4-carboxamide] were 0.045 µM, 6.32 µM and less than 0.5 µM.
For `CS(=O)(=O)c1ccc(-c2nn(-c3cccc(F)c3)cc2C(=O)Nc2cccc(C(F)(F)F)c2)cc1` [Compound 250, N-(3-Trifluoromethyphenyl)-3-[4-(methylsulfonyl)phenyl]-1-(3-fluorophenyl)-1H-pyrazole-4-carboxamide], the concentration for half-maximal inhibition (IC50) amounted to 0.291 µM at ALDH1A2 [2] and 85.8 µM against ALDH2.
`CS(=O)(=O)c1ccc(-c2nn(-c3ccccc3)cc2C(=O)Nc2cccnc2)cc1` [Compound 253, 3-[4-(Methylsulfonyl)phenyl]-1-phenyl-N-(pyridin-3-yl)-1H-pyrazole-4-carboxamide]: the IC50 on ALDH1A2 [2] stood at 0.059 µM; against ALDH2, 10 µM.
For `CS(=O)(=O)c1ccc(-c2nn(-c3cccc(C#N)c3)cc2C(=O)Nc2cccc(C(F)(F)F)c2)cc1` [Compound 270, 1-(3-Cyanophenyl)-N-(3-trifluoromethylphenyl)-3-[4-(methylsulfonyl)phenyl]-1H-pyrazole-4-carboxamide], the IC50 against ALDH1A2 [2] was found to be 0.346 µM; against ALDH2, 91.7 µM.
For `CS(=O)(=O)c1ccc(-c2nn(-c3ccc(C(N)=O)cc3)cc2C(=O)Nc2cccc(F)c2)cc1` [Compound 283, 1-(4-Carbomylphenyl)-3-[4-(methylsulfonyl)phenyl]-N-(3-fluorophenyl)-1H-pyrazole-4-carboxamide], the EC50 worked out at 18.4 µM on ALDH1A1 and 0.4 µM on ALDH1A2 [1].
Turning to `CS(=O)(=O)c1ccc(-c2nn(-c3ccc(C(=O)NO)cc3)cc2C(=O)Nc2cccc(F)c2)cc1` [Compound 284, 1-(4-Hydroxycarbomylphenyl)-3-[4-(methylsulfonyl)phenyl]-N-(3-fluorophenyl)-1H-pyrazole-4-carboxamide], the EC50 at ALDH1A1 amounted to 1.93 µM; on ALDH1A2 [1] it was 0.04 µM.
Take `O=C(c1sccc1Cl)N1CCN(c2ccc([N+](=O)[O-])c(N3CCCC3)c2)CC1` [Compound 324, {4-[4-Nitro-3-(pyrrolidin-1-yl)phenyl]piperazin-1-yl}(3-chlorothiophen-2-yl)methanone]: the IC50 against ALDH1A2 [2] came out at 0.142 µM; on ALDH2 it was 5.22 µM.
Taken in the same sequence, the figures for `O=C(c1ccc(O)s1)N1CCN(c2ccc([N+](=O)[O-])c(N3CCCC3)c2)CC1` [Compound 335] were 0.342 µM and 2.07 µM.

These data come from patent publication US11548875B2, “Inhibitor compounds for male contraception” (University of Washington, priority 2018, dated 2023).
